Laboratory results as given in patent US20180249713A1, “Composition for Protection of Plants, Fruit and Vegetables” (priority 2015, published 2018).
Read-outs that look alike come from different tables or passages of the source.

Tests used:
Fusarium [1] = assay: Effect on Fusarium (Spore Growth) in vitro study; format: cell-based, Fusarium culmorum
Procedure: (§1) Sensitivity towards Tebuconazole (control) and Biocides A and B (see tables 1A and 1B) respectively, was tested in petri dishes using spore suspension containing 2.5×10^4 spores/ml of each fungal isolate or a mycelium block. 5-6 different concentrations of Biocide A and B respectively, as outlined in table 3 below were used in the tests.
(§2) For the tests, the two biocides A and B where individually mixed with potato dextrose broth to achieve the appropriate test concentration. Percent inhibition was assessed after a few days depending on the fungi and its growth rates measured in relation to control.

Fusarium [2] = assay: Effect on Fusarium (Mycelie Growth) in vitro study; format: cell-based, Fusarium culmorum
Procedure: as §1, §2

[3] = system: Puccinia striiformis f. sp. tritici (Pst); assay: Indoor greenhouse study, stripe (yellow) rust, preventive and curative; format: in vivo; conditions: preventive spray one day prior to infection, curative three days later; 30, 100, 300, 1000 ppm; evaluated 16 days later
Text: In this study we used tebuconazole as fungicidal reference (control) and the above outlined biocide A and B compositions for testing the effect on Stripe (yellow) rust, caused by Puccinia striiformis f. sp. tritici (Pst). The applied method also tests preventive and curative effects of the elected fungicide compositions.
The scale used is 0=no attack;
1=necrose with a few pustules; 5=half of the infected leafs are attacked by pustules; 10=100% attack of the leafs.
The leafs were sprayed preventive one day prior to infection with Stripe (yellow) rust. Three days later the plants were sprayed for curative purposes.
16 days later the plant were evaluated.
The following doses were used for both preventive and curative experiments: 30, 100, 300, 1000 ppm

Compound: CC(C)(C)C(O)(CCc1ccc(Cl)cc1)Cn1cncn1 (stereo not shown) [Tebuconazole]
- Growth (Fusarium [1]; 0.1 ppm): 25%
- Growth (Fusarium [1]; 1 ppm): 0%
- Growth (Fusarium [1]; 3.3 ppm): 0%
- Growth (Fusarium [1]; 10 ppm): 0%
- Growth (Fusarium [1]; 33 ppm): 0%
- Growth (Fusarium [1]; 100 ppm): 0%
- Growth (Fusarium [2]; 0.1 ppm): 10%
- Growth (Fusarium [2]; 1 ppm): 10%
- Growth (Fusarium [2]; 3.3 ppm): 0%
- Growth (Fusarium [2]; 10 ppm): 0%
- Growth (Fusarium [2]; 33 ppm): 0%
- Growth (Fusarium [2]; 100 ppm): 0%
- effect on Stripe (yellow) rust attack [3]: able to eliminate the fungi attack both in a preventive and a curative manner
- Growth (Septoria tritici; 0.1 ppm): 10%
- Growth (Septoria tritici; 1 ppm): 5%
- Growth (Septoria tritici; 3.3 ppm): 0%
- Growth (Septoria tritici; 10 ppm): 0%
- Growth (Septoria tritici; 33 ppm): 0%
- Growth (Septoria tritici; 100 ppm): 0%
